In publication PMC6202177 (Nature chemical biology, 2018):

Assays:
[…]/HLA-B*27:02/hβ2m = SEC binding of TAPBPR; parameters: species or system human
[…]/HLA-B*15:01/hβ2m = SEC binding of TAPBPR; parameters: species or system human
[…]/HLA-A*01:01/hβ2m = NMR binding of TAPBPR; parameters: species or system human
P18-I10/H2-D^d = assay: SEC binding of TAPBPR; parameters: species or system murine H2-D^d; settings: fully-loaded P18-I10/H2-D^d, in words
P18-I10/H2-D^d/hβ2m [1] = assay: NMR titration and line shape analysis of TAPBPR onto P18-I10/H2-D^d/hβ2m; format: binding, murine H2-D^d, human β2m; settings: slow exchange on the chemical shift timescale, in words
RGPGC/H2-D^d S73C = assay: SEC binding of TAPBPR; parameters: species or system murine H2-D^d; settings: partially loaded RGPGC/H2-D^d S73C, in words
peptide-deficient H2-D^d = assay: SEC binding of TAPBPR; parameters: species or system murine H2-D^d; settings: in words
biotinylated TAPBPR = biotinylated TAPBPR (UniProt Q9BX59); assay: SPR
[2] = biological target: peptide-deficient H2-D^d/hβ2m/TAPBPR complex (murine | human | not stated); assay: fluorescence polarisation
[3] = biological target: peptide-deficient H2-D^d/hβ2m/TAPBPR (Mus musculus, UniProt P01900); assay: Fluorescence anisotropy competition with TAMRA-P18-I10; format: binding, murine H2-D^d, human β2m; settings: negative control peptide, in words
[4] = biological target: H2-D^d/TAPBPR (MHC-I/TAPBPR) (Mus musculus, UniProt P01900); assay: Thermodynamic cycle step 4: peptide binding to MHC-I/TAPBPR; parameters: species or system murine H2-D^d, human β2m; settings: Fig. 6 mechanism, in words
[5] = biological target: peptide-deficient H2-D^d/hβ2m/TAPBPR complex (murine | human | not stated); assay: NMR titration
P18-I10/H2-D^d/hβ2m [6] = biological target: P18-I10/H2-D^d/hβ2m (murine | human | HIV); assay: NMR titration

## TAPBPR: molecular chaperone, TAP-binding protein related; luminal domain expressed in Drosophila S2 cells
[…]/HLA-B*27:02/hβ2m; 80 μM pMHC-I, 160 μM TAPBPR, room temperature 1 hour, HLA-B*27:02
  TAPBPR binding (SEC): No TAPBPR binding could be detected
[…]/HLA-B*27:02/hβ2m; HLA-B*27:02, inferred from lack of detectable binding (≫)
  koff implied if an interaction exists: > 3 s⁻¹
[…]/HLA-B*15:01/hβ2m; 80 μM pMHC-I, 160 μM TAPBPR, room temperature 1 hour, HLA-B*15:01
  TAPBPR binding (SEC): No TAPBPR binding could be detected
[…]/HLA-B*15:01/hβ2m; HLA-B*15:01, inferred from lack of detectable binding (≫)
  koff implied if an interaction exists: > 3 s⁻¹
[…]/HLA-A*01:01/hβ2m; 200 µM pMHC-I, two-fold molar excess TAPBPR, HLA-A*01:01
  TAPBPR binding (NMR): No TAPBPR binding could be detected
[…]/HLA-A*01:01/hβ2m; HLA-A*01:01, inferred from lack of detectable binding (≫)
  koff implied if an interaction exists: > 3 s⁻¹
P18-I10/H2-D^d
  TAPBPR binding (SEC): high-affinity complex
P18-I10/H2-D^d/hβ2m [1]
  TAPBPR binding to pMHC-I by NMR: tight complex
RGPGC/H2-D^d S73C
  TAPBPR binding (SEC): high-affinity complex
peptide-deficient H2-D^d
  TAPBPR binding (SEC): high-affinity complex

## H2-D^(d S73C)/β2m (complex)
Biotinylated TAPBPR
  koff: < 0.002 s⁻¹

## P18-I10 peptide
[2]
  K2′: 0.186 µM
  Kd: 0.09 µM

## FVTI
[3]
  stability and exchange in the DSF and FA assays: minimal stability and exchange
[4]
  affinity class of peptide: low-affinity

## ^13C labeled P18-I10 (peptide)
[5]
  Kd: < 7.2 µM
  koff: < 80 s⁻¹

B1: TAPBPR (TAP-binding protein related), luminal domain (domain or fragment)
chain: KPHPAEGQWRAVDVVLDCFLAKDGAHRGALASSEDRARASLVLKQVPVLDDGSLEDFTDFQGGTLAQDDPPIIFEASVDLVQIPQAEALLHADCSGKEVTCEISRYFLQMTETTVKTAAWFMANMQVSGGGPSISLVMKTPRVTKNEALWHPTLNLPLSPQGTVRTAVEFQVMTQTQSLSFLLGSSASLDCGFSMAPGLDLISVEWRLQHKGRGQLVYSWTAGQGQAVRKGATLEPAQLGMARDASLTLPGLTIQDEGTYICQITTSLYRAQQIIQLNIQASPKVRLSLANEALLPTLICDIAGYYPLDVVVTWTREELGGSPAQVSGASFSSLRQSVAGTYSISSSLTAEPGSAGATYTCQVTHISLEEPLGASTQVVPPERR
P18-I10/H2-D^d/hβ2m [6]
  Kd: 32 µM
